# Results published in PubChem BioAssay AID1259407 (Chemical Carcinogenesis Research Information System (CCRIS), 2018).
# Calls of active or inactive are those of the source. No rule for the calls is given here.
# Test system: CCRIS mutagenicity, Ames/micronucleus/aberration tests
# Assay: CCRIS mutagenicity studies
# [1] = Test System: AMES SALMONELLA TYPHIMURIUM, Strain/Indicator: TA98, Metabolic Activation: HAMSTER, LIVER, S-9, AROCLOR 1254 (10%), Method: PREINCUBATION
# [2] = Test System: AMES SALMONELLA TYPHIMURIUM, Strain/Indicator: TA98, Metabolic Activation: NONE, Method: PREINCUBATION
# [3] = Test System: AMES SALMONELLA TYPHIMURIUM, Strain/Indicator: TA98, Metabolic Activation: RAT, LIVER, S-9, AROCLOR 1254 (10%), Method: PREINCUBATION
# [4] = Test System: AMES SALMONELLA TYPHIMURIUM, Strain/Indicator: TA100, Metabolic Activation: HAMSTER, LIVER, S-9, AROCLOR 1254 (10%), Method: PREINCUBATION
# [5] = Test System: AMES SALMONELLA TYPHIMURIUM, Strain/Indicator: TA100, Metabolic Activation: NONE, Method: PREINCUBATION
# [6] = Test System: AMES SALMONELLA TYPHIMURIUM, Strain/Indicator: TA100, Metabolic Activation: RAT, LIVER, S-9, AROCLOR 1254 (10%), Method: PREINCUBATION
# [7] = Test System: AMES SALMONELLA TYPHIMURIUM, Strain/Indicator: TA1535, Metabolic Activation: HAMSTER, LIVER, S-9, AROCLOR 1254 (10%), Method: PREINCUBATION
# [8] = Test System: AMES SALMONELLA TYPHIMURIUM, Strain/Indicator: TA1535, Metabolic Activation: NONE, Method: PREINCUBATION
# [9] = Test System: AMES SALMONELLA TYPHIMURIUM, Strain/Indicator: TA1535, Metabolic Activation: RAT, LIVER, S-9, AROCLOR 1254 (10%), Method: PREINCUBATION
# [10] = Test System: AMES SALMONELLA TYPHIMURIUM, Strain/Indicator: TA98, Metabolic Activation: NONE, Method: STANDARD PLATE
# [11] = Test System: AMES SALMONELLA TYPHIMURIUM, Strain/Indicator: TA100, Metabolic Activation: NONE, Method: STANDARD PLATE
smiles,measurement,setting,value
[N-]=[N+]=NCCC(c1ccccc1)c1ccccc1,mutagenic call,"Test System: AMES SALMONELLA TYPHIMURIUM, Strain/Indicator: TA100, Metabolic Activation: RAT, LIVER, S-9, PCB, Method: PREINCUBATION",active; positive
Nc1cc(Cl)ccc1Cl,mutagenic call,"Test System: AMES SALMONELLA TYPHIMURIUM, Strain/Indicator: TA97, Metabolic Activation: HAMSTER, LIVER, S-9, AROCLOR 1254 (10%), Method: PREINCUBATION",inactive; negative
same,mutagenic call,"Test System: AMES SALMONELLA TYPHIMURIUM, Strain/Indicator: TA97, Metabolic Activation: HAMSTER, LIVER, S-9, AROCLOR 1254 (30%), Method: PREINCUBATION",inactive; negative
same,mutagenic call,"Test System: AMES SALMONELLA TYPHIMURIUM, Strain/Indicator: TA97, Metabolic Activation: NONE, Method: PREINCUBATION",inactive; negative
same,mutagenic call,"Test System: AMES SALMONELLA TYPHIMURIUM, Strain/Indicator: TA97, Metabolic Activation: RAT, LIVER, S-9, AROCLOR 1254 (10%), Method: PREINCUBATION",inactive; negative
same,mutagenic call,"Test System: AMES SALMONELLA TYPHIMURIUM, Strain/Indicator: TA97, Metabolic Activation: RAT, LIVER, S-9, AROCLOR 1254 (30%), Method: PREINCUBATION",inactive; negative
same,mutagenic call,[1],inactive; negative
same,mutagenic call,"Test System: AMES SALMONELLA TYPHIMURIUM, Strain/Indicator: TA98, Metabolic Activation: HAMSTER, LIVER, S-9, AROCLOR 1254 (30%), Method: PREINCUBATION",inactive; negative
same,mutagenic call,[2],inactive; negative
same,mutagenic call,[3],inactive; negative
same,mutagenic call,"Test System: AMES SALMONELLA TYPHIMURIUM, Strain/Indicator: TA98, Metabolic Activation: RAT, LIVER, S-9, AROCLOR 1254 (30%), Method: PREINCUBATION",inactive; negative
same,mutagenic call,[4],inactive; negative
same,mutagenic call,"Test System: AMES SALMONELLA TYPHIMURIUM, Strain/Indicator: TA100, Metabolic Activation: HAMSTER, LIVER, S-9, AROCLOR 1254 (30%), Method: PREINCUBATION",inactive; negative
same,mutagenic call,[5],inactive; negative
same,mutagenic call,[6],inactive; negative
same,mutagenic call,"Test System: AMES SALMONELLA TYPHIMURIUM, Strain/Indicator: TA100, Metabolic Activation: RAT, LIVER, S-9, AROCLOR 1254 (30%), Method: PREINCUBATION",inactive; negative
same,mutagenic call,[7],inactive; negative
same,mutagenic call,"Test System: AMES SALMONELLA TYPHIMURIUM, Strain/Indicator: TA1535, Metabolic Activation: HAMSTER, LIVER, S-9, AROCLOR 1254 (30%), Method: PREINCUBATION",inactive; negative
same,mutagenic call,[8],inactive; negative
same,mutagenic call,[9],inactive; negative
same,mutagenic call,"Test System: AMES SALMONELLA TYPHIMURIUM, Strain/Indicator: TA1535, Metabolic Activation: RAT, LIVER, S-9, AROCLOR 1254 (30%), Method: PREINCUBATION",inactive; negative
same,mutagenic call,"Test System: UDS RODENT HEPATOCYTES, Strain/Indicator: THY INCORP (NON-S-PHASE), Metabolic Activation: NONE, Method: AUTORADIOGRAPHY",inactive; negative
CN(C)CCCN1c2ccccc2Sc2ccc(Cl)cc21,mutagenic call,"End Point: IN VITRO CHROMOSOMAL ABERRATIONS, Test System: CHINESE HAMSTER OVARY CELLS, Metabolic Activation: NONE",inactive; negative
same,mutagenic call,"End Point: IN VITRO CHROMOSOMAL ABERRATIONS, Test System: CHINESE HAMSTER OVARY CELLS, Metabolic Activation: RAT, LIVER, S-9, AROCLOR 1254",inactive; negative
same,mutagenic call,[1],inactive; negative
same,mutagenic call,[2],inactive; negative
same,mutagenic call,"Test System: AMES SALMONELLA TYPHIMURIUM, Strain/Indicator: TA98, Metabolic Activation: NONE, Method: SPOT TEST",inactive; negative
same,mutagenic call,[10],inactive; negative
same,mutagenic call,[3],inactive; negative
same,mutagenic call,"Test System: AMES SALMONELLA TYPHIMURIUM, Strain/Indicator: TA98, Metabolic Activation: RAT, LIVER, S-9, AROCLOR 1254, Method: STANDARD PLATE",inactive; negative
same,mutagenic call,[4],inactive; negative
same,mutagenic call,[5],inactive; negative
same,mutagenic call,[11],inactive; negative
same,mutagenic call,[6],inactive; negative
same,mutagenic call,"Test System: AMES SALMONELLA TYPHIMURIUM, Strain/Indicator: TA100, Metabolic Activation: RAT, LIVER, S-9, AROCLOR 1254, Method: STANDARD PLATE",inactive; negative
same,mutagenic call,[7],inactive; negative
same,mutagenic call,[8],inactive; negative
same,mutagenic call,"Test System: AMES SALMONELLA TYPHIMURIUM, Strain/Indicator: TA1535, Metabolic Activation: NONE, Method: STANDARD PLATE",inactive; negative
same,mutagenic call,[9],inactive; negative
same,mutagenic call,"Test System: AMES SALMONELLA TYPHIMURIUM, Strain/Indicator: TA1535, Metabolic Activation: RAT, LIVER, S-9, AROCLOR 1254, Method: STANDARD PLATE",inactive; negative
same,mutagenic call,"Test System: AMES SALMONELLA TYPHIMURIUM, Strain/Indicator: TA1537, Metabolic Activation: HAMSTER, LIVER, S-9, AROCLOR 1254 (10%), Method: PREINCUBATION",inactive; negative
same,mutagenic call,"Test System: AMES SALMONELLA TYPHIMURIUM, Strain/Indicator: TA1537, Metabolic Activation: NONE, Method: PREINCUBATION",inactive; negative
same,mutagenic call,"Test System: AMES SALMONELLA TYPHIMURIUM, Strain/Indicator: TA1537, Metabolic Activation: NONE, Method: STANDARD PLATE",inactive; negative
same,mutagenic call,"Test System: AMES SALMONELLA TYPHIMURIUM, Strain/Indicator: TA1537, Metabolic Activation: RAT, LIVER, S-9, AROCLOR 1254 (10%), Method: PREINCUBATION",active; positive
same,mutagenic call,"Test System: AMES SALMONELLA TYPHIMURIUM, Strain/Indicator: TA1537, Metabolic Activation: RAT, LIVER, S-9, AROCLOR 1254, Method: STANDARD PLATE",inactive; negative
same,mutagenic call,"Test System: CHINESE HAMSTER V-79, Strain/Indicator: V-79/6-THIOGUANINE, Metabolic Activation: NONE",inactive; negative
same,mutagenic call,"Test System: CHINESE HAMSTER V-79, Strain/Indicator: V-79/OUABAIN, Metabolic Activation: NONE",inactive; negative
OC1c2cccc3ccc4c5ccccc5cc1c4c23 (centres undefined),mutagenic call,"Test System: AMES SALMONELLA TYPHIMURIUM, Strain/Indicator: TA98, Metabolic Activation: HUMAN, LIVER, CYTOSOL, PAPS, Method: PREINCUBATION",active; positive
same,mutagenic call,[2],active; positive
same,mutagenic call,"Test System: AMES SALMONELLA TYPHIMURIUM, Strain/Indicator: TA98, Metabolic Activation: RAT, LIVER, CYTOSOL, KCL, Method: PREINCUBATION",inactive; negative
same,mutagenic call,"Test System: AMES SALMONELLA TYPHIMURIUM, Strain/Indicator: TA98, Metabolic Activation: RAT, LIVER, CYTOSOL, PAPS, KCL, Method: PREINCUBATION",active; positive
same,mutagenic call,"Test System: AMES SALMONELLA TYPHIMURIUM, Strain/Indicator: TA98, Metabolic Activation: RAT, LIVER, CYTOSOL, PAPS, Method: PREINCUBATION",active; positive
same,mutagenic call,"Test System: AMES SALMONELLA TYPHIMURIUM, Strain/Indicator: TA98, Metabolic Activation: RAT, LIVER, PAPS, KCL, Method: PREINCUBATION",inactive; negative
same,mutagenic call,"Test System: AMES SALMONELLA TYPHIMURIUM, Strain/Indicator: TA98, Metabolic Activation: RAT, LIVER, S-9, NADPH, Method: PREINCUBATION",active; positive
NC(=O)N(CCF)N=O,mutagenic call,"Test System: E. COLI B, Strain/Indicator: H/R30R, Metabolic Activation: NONE",active; positive
same,mutagenic call,"Test System: E. COLI B, Strain/Indicator: HS30R, Metabolic Activation: NONE",active; positive
CCN(CCCl)c1ccc(-c2nc3ccc(-c4nc5ccc(N6CCN(C)CC6)cc5[nH]4)cc3[nH]2)cc1,mutagenic call,[10],inactive; negative
same,mutagenic call,[11],inactive; negative
same,mutagenic call,"Test System: AMES SALMONELLA TYPHIMURIUM, Strain/Indicator: TA102, Metabolic Activation: NONE, Method: STANDARD PLATE",inactive; negative
